Data taken from patent US20170168067A1, “CHROMATIN-ACTIVITY-BASED CHEMOPROTEOMIC (CHAC) METHODS AND SYSTEMS FOR DISEASE MARKER DISCOVERY AND DEVELOPMENT” (The University of North Carolina at Chapel Hill, priority 2014, published 2017).
Peptide text beside a SMILES is read from it. * marks the point of attachment. Cbz = O=C(OCc1ccccc1)*

Key:
c-Myc [1] = assay: c-Myc accumulation after proteasome inhibition, immunoblot; type: cell-based, mouse; details: LPS-primed, 10 mM MG-132
Protocol: Raw264.7 or TLR4/MD2/CD14 293 cell lines were primed with 100 ng/ml^−1 LPS for 24 h and then treated with 1 mg/ml^−1 cycloheximide (Sigma-Aldrich; #C4859) for indicated time. Cells were harvested and subjected to immunoblot analysis by using anti-c-Myc antibody. Exposed films of immunoblot were scanned and quantified by ImageJ densitometry software. The intensity of each band was plotted in scatter plot and c-Myc half-life was determined on computed curve. Raw264.7 cells were primed with 100 ng/ml^−1 LPS for 24 h and then treated with 10 mM MG-132 for time indicated. C-Myc accumulation was reflected in immunoblot against c-Myc by short- and long-exposure. b-Actin and g-Tubulin were represented as loading controls.

G9a [2] = assay: ChIP abundance of G9a within T-class promoters; type: cell-based, mouse; details: pre-treated TL cells
Protocol: (§1) ChIP experiments for studying histone modifiers and TFs were carried out in dual crosslinking way (Porro et al., 2007) with minor modifications. Cells were fixed using 2 mM DSG (disuccinimidyl glutarate, ProteomChem #c1104) for 45 min. Formaldehyde (1% v/v) was then added and incubated for 15 min. Crosslinking reactions were quenched by adding glycine to 0.1 M, followed by PBS washing. Cells were scraped and nuclei were pelleted by 0.5% NP-40 lysis buffer (50 mM pH 8.0 Tris-HCl, 85 mM KCl, 0.5% NP-40). The nuclear fraction was extracted with RIPA buffer (50 mM pH 8.0 Tris-HCl, 150 mM NaCl, 1 mM EDTA, 1% Triton-X-100, 0.1% SDS, 0.1% sodium deoxycholate) and sonicated to 200 to 1,000 bp DNA fragments, then incubated overnight with the antibody. The antibody complexes were linked to protein A/salmon sperm DNA beads (Cell Signaling, cat #9007) and washed thoroughly. The complexes were then eluted from the beads by 1% SDS, and incubated with NaCl to reverse the crosslinked products. Later, proteins were digested by protease-K and the released DNA was purified by QIAquick PCR purification Kit (Qiagen, cat #28104), and processed to quantitative PCR assay. ChIP experiments for studying histone post-PTMs were started from a one-step fixation of 1% (v/v) formaldehyde for 10 min, followed by the same steps as dual crosslinking ChIP described above.

H3K9me2 = assay: ChIP analysis with anti-H3K9me2 antibody in BMDMs; type: cell-based, mouse; details: BMDMs treated prior to LPS stimulation; inhibitor pre-treated TL cells compared with NL
Protocol: as §1

HDAC1 = assay: ChIP-PCR binding of HDAC1 to T-gene (IL6) promoter; type: cell-based, mouse; details: treated BMDMs during ET
Protocol: as §1

MTA1 = assay: ChIP-PCR binding of MTA1 to T-class genes; type: cell-based, mouse; details: treated BMDMs
Protocol: as §1

H3K36me2 = assay: immunoblot analysis of dimethylated H3K36; type: cell-based, mouse; details: treated vs non-treated BMDMs, TL
Protocol: (§2) Core histone proteins were prepared by Histone Purification Mini Kit (Active Motif; cat#40026). Adhered cells were washed with prewarmed serum-free media twice and were then harvested. The pellet was lysed with 1.5 ml extraction buffer per 2×10^7 cells and homogenized by repetitive pipetting. The cell lysate was processed under agitation for 2 h at 4° C. before the crude histone was clarified, neutralized and loaded onto the column. Histone proteins were purified by a C8 column and were precipitated by 4% perchloric acid according to the manufacturer's instructions and were resolved in HPLC water. All steps were processed on ice or in cold room, for the maximum preservation of histone modifications.

H3K27 = assay: immunoblot analysis of methylated H3K27; type: cell-based, mouse; details: treated cells
Protocol: as §2

c-Myc [3] = assay: ChIP-qPCR binding of c-Myc to gene loci; type: cell-based, mouse
Protocol: as §1

Raw264.7 cells = assay: Clonogenic survival assay; type: cell-based, mouse; set-up: dose or concentration left out as unconfirmed
Protocol: Raw264.7 cells were counted and plated in six-well cell culture plates with 50, 100 and 200 viable cells in duplicated wells. Cells were primed with 100 ng/ml^−1 LPS for […] to reach the condition of ET and replenished with fresh media. […] After 9-day cell growth, cell colonies were washed with PBS, fixed with a mixture of methanol-acetic acid (3:1 in volume ratio) for 10 min, stained with 10% Giemsa (Ricca Chemical Company, Arlington, Tex., United States of America) for 30 min, gently washed with water and air dried. The colonies containing more than 20 cells were counted and the percentage of the survived cells under each condition was determined compared with the number of colonies on non-LPS or UNC0638-treated plates.

BMDM secretome = assay: Label-free quantitative analysis of macrophage secretome; type: cell-based, mouse; details: BMDMs under TL pre-treated with 250 nM for 16 h
Protocol: Referring now to FIG. 1, cells were then either left unstimulated (N) or subjected to a single LPS challenge at 500 ng/ml^−1 for indicated hours (NL) or first primed with 100 ng/ml^−1 LPS to induce the ET for 24 h, followed by the second LPS challenge at 500 ng/ml^−1 for indicated hours (TL). Before the LPS challenge, cells were washed once and cultured in serum-free DMEM without phenolred, containing 1 mM sodium pyruvate and 10 mM L-glutamine. The secreted proteins were harvested and prepared (Meissner et al., 2013).
LFQ secretome analyses were performed via reversed phase LC-MS/MS using a Proxeon 1000 nano LC system coupled to an Q Exactive mass spectrometer (Thermo Scientific). […]
Label-free quantitation was based on the peak area (Cox et al., 2008; Gunawardena et al., 2013; Gunawardena et al., 2011; Porro et al., 2007). The measured area under the curve of m/z and retention time aligned extracted ion chromatogram (XIC) of a peptide was performed via the label-free quantitation module found in MaxQuant™ (vera 1.3.0.5) (Cox et al., 2008). All replicates (biological and technical replicates) of each experimental conditions: N, NL-16 h, TL-16 h, were included in the LFQ experimental design with protein-level quantitation and normalization performed using unique and razor peptide features corresponding to identifications filtered with a peptide FDR of 0.01 and protein FDR of 0.05. […]

G9a [4] = target: T1, G9a (Homo sapiens, UniProt Q96KQ7); details: Vedadi et al., 2011; cited from earlier work
T1 sequence (Q96KQ7 1-1210): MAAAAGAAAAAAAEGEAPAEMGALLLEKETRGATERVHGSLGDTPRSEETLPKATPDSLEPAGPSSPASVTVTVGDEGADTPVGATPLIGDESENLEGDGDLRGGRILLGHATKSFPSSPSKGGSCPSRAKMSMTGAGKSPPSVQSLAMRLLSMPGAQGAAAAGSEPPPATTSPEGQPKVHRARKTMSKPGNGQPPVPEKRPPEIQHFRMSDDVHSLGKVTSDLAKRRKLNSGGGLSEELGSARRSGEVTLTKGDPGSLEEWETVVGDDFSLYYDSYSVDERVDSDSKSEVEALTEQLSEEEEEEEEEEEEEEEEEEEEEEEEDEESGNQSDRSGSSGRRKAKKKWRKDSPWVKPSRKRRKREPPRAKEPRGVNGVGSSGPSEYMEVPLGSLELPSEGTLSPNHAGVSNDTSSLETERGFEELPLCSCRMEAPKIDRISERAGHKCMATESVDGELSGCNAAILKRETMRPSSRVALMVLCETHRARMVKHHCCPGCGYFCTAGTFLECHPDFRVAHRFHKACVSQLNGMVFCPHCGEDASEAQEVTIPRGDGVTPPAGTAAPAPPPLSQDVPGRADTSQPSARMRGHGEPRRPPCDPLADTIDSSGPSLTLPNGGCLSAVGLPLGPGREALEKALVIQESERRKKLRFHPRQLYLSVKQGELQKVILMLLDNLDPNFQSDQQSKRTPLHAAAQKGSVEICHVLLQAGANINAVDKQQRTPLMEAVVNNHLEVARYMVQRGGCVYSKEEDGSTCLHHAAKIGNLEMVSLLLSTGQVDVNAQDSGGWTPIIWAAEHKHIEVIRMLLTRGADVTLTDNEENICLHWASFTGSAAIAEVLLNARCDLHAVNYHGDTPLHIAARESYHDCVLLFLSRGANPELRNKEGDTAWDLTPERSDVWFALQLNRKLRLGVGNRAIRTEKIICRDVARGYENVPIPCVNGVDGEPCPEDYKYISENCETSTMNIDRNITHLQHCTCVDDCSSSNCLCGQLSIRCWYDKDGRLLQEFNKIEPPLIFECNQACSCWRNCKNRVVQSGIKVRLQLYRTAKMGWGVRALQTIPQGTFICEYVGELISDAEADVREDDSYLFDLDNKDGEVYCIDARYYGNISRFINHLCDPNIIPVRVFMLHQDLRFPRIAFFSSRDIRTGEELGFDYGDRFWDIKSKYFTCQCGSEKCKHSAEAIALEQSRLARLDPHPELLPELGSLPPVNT

Compound: CC(C)C[C@@H](C=O)NC(=O)[C@H](CC(C)C)NC(=O)[C@H](CC(C)C)NC(=O)OCc1ccccc1 [MG-132] (Cbz-Leu-Leu-Leu-aldehyde)
- c-Myc level with post-treatment time (c-Myc [1]; G9a-KD Raw264.7 cells): progressive accumulation
- c-Myc level with longer post-treatment time (c-Myc [1]; wild-type Raw264.7 cells (presence of G9a)): reduced

Compound: O=C(CCCCCCC(=O)Nc1ccccc1)NO [SAHA]
- abundance of G9a within the T-class promoters (G9a [2]): reduced

Compound: COc1cc2c(NC3CCN(C(C)C)CC3)nc(C3CCCCC3)nc2cc1OCCCN1CCCC1 [UNC0638, 2-Cyclohexyl-N-(1-isopropylpiperidin-4-yl)-6-methoxy-7-(3-(pyrrolidin-1-yl)propoxy) quinazolin-4-amine]
- change in H3K9me2 (ChIP) (H3K9me2): greater decreases
- IL6-specific binding of HDAC1 (HDAC1): diminished
- TL-specific binding of MTA1 to T-class genes (MTA1): diminished
- level of H3K36me2 (H3K36me2): decreased
- methylated level of H3K27 (H3K27): reduced
- c-Myc binding to the NT-genes (c-Myc [3]): not affected
- c-Myc binding to the loci of IL6 (c-Myc [3]; treated BMDMs under TL): diminished
- c-Myc binding to IL6, IP-10 and p21 (c-Myc [3]; under TL): reduced
- percentage of survived cells (Raw264.7 cells; cells under TL, 9-day growth): significantly reduced
- percentage of survived cells (Raw264.7 cells; non-treated (non-LPS) wild-type cells): little effect
- share of 992 identified proteins showing repressed releases whose secretion levels increased (BMDM secretome): 45%
- change in abundance of G9a (G9a [4]): little change
